The target of one test is T1, HDAC7 (Homo sapiens, UniProt Q8WUI4).
T1 sequence (Q8WUI4 1-952): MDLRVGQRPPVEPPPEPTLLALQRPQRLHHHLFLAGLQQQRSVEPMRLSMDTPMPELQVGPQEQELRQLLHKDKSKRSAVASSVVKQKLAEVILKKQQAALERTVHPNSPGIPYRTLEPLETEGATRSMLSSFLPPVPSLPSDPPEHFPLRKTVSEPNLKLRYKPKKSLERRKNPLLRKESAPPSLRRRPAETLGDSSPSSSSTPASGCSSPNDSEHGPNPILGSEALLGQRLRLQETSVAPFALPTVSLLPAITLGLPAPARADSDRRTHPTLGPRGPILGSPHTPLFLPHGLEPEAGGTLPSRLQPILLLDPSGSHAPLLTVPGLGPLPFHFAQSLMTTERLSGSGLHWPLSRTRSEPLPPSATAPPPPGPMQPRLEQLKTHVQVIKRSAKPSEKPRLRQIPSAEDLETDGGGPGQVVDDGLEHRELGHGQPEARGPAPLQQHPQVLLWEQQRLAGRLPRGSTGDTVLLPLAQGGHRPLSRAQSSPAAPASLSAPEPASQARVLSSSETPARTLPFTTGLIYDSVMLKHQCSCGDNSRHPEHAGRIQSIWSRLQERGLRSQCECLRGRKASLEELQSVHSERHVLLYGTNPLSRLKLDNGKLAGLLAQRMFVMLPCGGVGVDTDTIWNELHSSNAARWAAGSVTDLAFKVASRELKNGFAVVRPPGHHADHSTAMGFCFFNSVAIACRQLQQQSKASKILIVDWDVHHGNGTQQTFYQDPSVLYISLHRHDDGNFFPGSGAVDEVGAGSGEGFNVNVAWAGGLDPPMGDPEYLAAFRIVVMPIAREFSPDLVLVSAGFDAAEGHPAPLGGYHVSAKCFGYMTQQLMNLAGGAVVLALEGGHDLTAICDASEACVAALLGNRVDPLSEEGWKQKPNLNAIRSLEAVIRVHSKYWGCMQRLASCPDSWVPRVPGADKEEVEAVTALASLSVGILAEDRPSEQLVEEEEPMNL
The test can be described thus: Inhibition of histone deacetylase isoforms, HDAC7.

For a further test, the target named is T2, HDAC8 (Homo sapiens, UniProt Q9BY41).
T2 sequence (Q9BY41 1-377): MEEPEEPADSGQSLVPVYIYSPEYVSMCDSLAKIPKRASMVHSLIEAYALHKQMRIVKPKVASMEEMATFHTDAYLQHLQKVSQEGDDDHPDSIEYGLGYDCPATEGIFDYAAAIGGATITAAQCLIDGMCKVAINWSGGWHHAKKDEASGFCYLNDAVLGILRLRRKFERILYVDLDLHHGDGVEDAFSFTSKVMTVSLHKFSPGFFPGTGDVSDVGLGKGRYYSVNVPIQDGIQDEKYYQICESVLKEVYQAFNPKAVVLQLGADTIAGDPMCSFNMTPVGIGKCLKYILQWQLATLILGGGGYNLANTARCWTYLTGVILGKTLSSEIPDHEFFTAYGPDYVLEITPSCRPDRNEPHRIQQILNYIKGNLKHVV
The test can be described thus: Inhibition of histone deacetylase isoforms, HDAC8.

For the next test, the target named is T3, HDAC11 (Homo sapiens, UniProt Q96DB2).
T3 sequence (Q96DB2 1-347): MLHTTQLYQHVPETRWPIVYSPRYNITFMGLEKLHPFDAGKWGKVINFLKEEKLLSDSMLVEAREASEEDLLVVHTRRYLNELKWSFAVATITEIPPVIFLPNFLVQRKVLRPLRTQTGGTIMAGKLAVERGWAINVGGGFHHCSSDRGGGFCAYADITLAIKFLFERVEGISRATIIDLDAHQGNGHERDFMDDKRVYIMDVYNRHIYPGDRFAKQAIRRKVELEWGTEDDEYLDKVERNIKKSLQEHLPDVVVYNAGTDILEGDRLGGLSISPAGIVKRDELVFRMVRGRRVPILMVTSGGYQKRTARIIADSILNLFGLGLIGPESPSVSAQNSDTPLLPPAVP
The test can be described thus: Inhibition of histone deacetylase isoforms, HDAC11.

Molecules are shown by their SMILES.

Procedure for HDAC11: Recombinant human enzymes were acquired from BPS Biosciences (CA, USA). Isoforms of Class I HDAC1, 2, 3; HDAC6, 10 of Class IIb and Class IV HDAC11 were tested using the Fluor-de-Lys fluorogenic synthetic substrate (Enzo Life Sciences, Plymouth Meeting, Pa.). […] Each inhibitor was dissolved in DMSO and then further diluted in an assay buffer. […] The assays were performed by pre-incubating each enzyme with the inhibitors for 15 minutes at 37° C. The reaction was started by adding the substrate at 37° C. and allowed to proceed for 60 minutes. The fluorescent signal was generated by adding 50 μL of a twice concentrated developer solution 2 (Enzo) containing trichostatin A 4 μM.
Procedure for HDAC7: (§1) Recombinant human enzymes were acquired from BPS Biosciences (CA, USA). Isoforms of Class I HDAC1, 2, 3; HDAC6, 10 of Class IIb and Class IV HDAC11 were tested using the Fluor-de-Lys fluorogenic synthetic substrate (Enzo Life Sciences, Plymouth Meeting, Pa.). […] The recombinant human HDAC8 assay was performed using HDAC8 Fluorimetric Drug Discovery Kit (Enzo) according to the manufacturer instructions. Each inhibitor was dissolved in DMSO and then further diluted in an assay buffer. […] The assays were performed by pre-incubating each enzyme with the inhibitors for 15 minutes at 37° C. The reaction was started by adding the substrate at 37° C. and allowed to proceed for 60 minutes. The fluorescent signal was generated by adding 50 μL of a twice concentrated developer solution 2 (Enzo) containing trichostatin A 4 μM.
Procedure for HDAC8: as §1

The term IC50 denotes the concentration at which inhibition is half-maximal. Read a high IC50 as weaker potency. In the case of `O=C(NO)c1ccc(NC(=O)[C@H](Cc2ccc3ccccc3c2)NC(=O)c2ccccc2)cc1` [Compound g, 4-(2(S)-benzoylamino-3-naphtalen-2-yl-propionylamino)-N-hydroxy-benzamide], the IC50 amounted to 2020 nM against HDAC7, 492 nM on HDAC8 and 441 nM on HDAC11.
On the same counts, the results for `O=C(NO)c1ccc(NC(=O)[C@H](Cc2ccc3ccccc3c2)NC(=O)c2ccc3c(c2)OCO3)cc1` [Compound t, benzo[1,3]dioxole-5-carboxylic acid [1(S)-(4-hydroxycarbamoyl-phenylcarbamoyl)-2-naphtalen-2-yl-ethy]-amide] are 8620 nM, 162 nM and 336 nM.
